Measured values from patent publication US11464802B2, “3-substituted piperidine compounds for Cbl-b inhibition, and use thereof” (Nurix Therapeutics, Inc., priority 2019, dated 2022).
Read-outs that look alike come from different tables or passages of the source.

Columns and labels:
Cbl-b = Cbl-b (Homo sapiens (Human), UniProt Q13191); test: Cbl-b displacement assay (Cbl-b inhibition assay), TR-FRET probe displacement, Biological Example 1; assay type: binding
Method: Candidate compounds were evaluated for their ability to bind and inhibit Cbl-b, an E3 ubiquitin-protein ligase, as evidenced by their ability to displace a fluorophore-labeled probe (Example 46) bound to Cbl-b.
The ability of candidate compounds to displace a known inhibitor and thereby inhibit Cbl-b activity was measured by monitoring the interaction of Cbl-b with a fluorophore-labeled probe in the presence of the candidate compound. A truncated variant of Cbl-b (UniProt number Q13191; SEQ ID NO:1) containing an Avitag at its N-terminus was co-expressed with BirA biotin ligase and purified using a standard protocol (see Dou et al., Nature Structural and Molecular Biology 8: 982-987, 2013; Avidity LLC).
Fluorescently-labeled inhibitor probe was synthesized and tagged with BODIPY FL (Example 46). Cbl-b displacement assays were performed in a 384-well plate at room temperature in a 10 μL reaction volume by pre-incubating 0.5 nM Cbl-b or 0.125 nM Cbl-b (final concentration, indicated as “High” and “Low”, respectively) in an assay buffer containing 20 mM HEPES pH 7.5, 150 mM NaCl, 0.01% Triton X-100, 0.01% BSA, and 0.5 mM TCEP in the presence of a candidate compound in 1% DMSO (final concentration) for 1 hour. After incubation in the presence of the candidate compound, the plate was incubated for an additional 1 hour in the presence of an approximate EC40 binding saturation consisting of 150 nM fluorescently-labeled inhibitor probe and 2 nM Streptavidin-Terbium (Cisbio) (final concentrations). Following the 1 hour incubation, the plates were read for TR-FRET signal at 520/620 nM using an Envision plate reader (Perkin Elmer).

[1] = test system: primary human total T-cells; test: Primary human total T-cell activation: CD25 surface staining, Biological Example 2; assay type: cell-based; conditions: 48 hours, fold change over baseline; for fold induction at 0.3 µM: inhibitor 0.3 μM; for fold induction at 1 µM: inhibitor 1 μM; for fold induction at 3 µM: inhibitor 3 μM
[2] = test system: primary human total T-cells; test: Primary human total T-cell activation: IL-2 secretion, Biological Example 2; assay type: cell-based; conditions: 48 hours, fold change over baseline; for fold induction at 0.3 µM: inhibitor 0.3 μM; for fold induction at 1 µM: inhibitor 1 μM; for fold induction at 3 µM: inhibitor 3 μM
[3] = 0.125 nM Cbl-b final concentration (Low), read-out: Cbl-b activity IC50 (Low)
[4] = anti-CD3/anti-CD28 co-stimulation
[5] = anti-CD3/anti-CD28 co-stimulation, read-out: CD25 staining CD3/CD28 1 μM
[6] = anti-CD3 alone, read-out: CD25 staining CD3 1 μM
[7] = anti-CD3/anti-CD28 co-stimulation, read-out: IL-2 secretion CD3/CD28 1 μM
[8] = anti-CD3 alone, read-out: IL-2 secretion CD3 1 μM
[9] = Cbl-b concentration (High or Low) not given, read-out: IC50 values in the Cbl-b inhibition assay of Biological Example 1
[10] = 0.5 nM Cbl-b final concentration (High), read-out: Cbl-b activity IC50 (High)

Sequence of Cbl-b (Q13191 36-427): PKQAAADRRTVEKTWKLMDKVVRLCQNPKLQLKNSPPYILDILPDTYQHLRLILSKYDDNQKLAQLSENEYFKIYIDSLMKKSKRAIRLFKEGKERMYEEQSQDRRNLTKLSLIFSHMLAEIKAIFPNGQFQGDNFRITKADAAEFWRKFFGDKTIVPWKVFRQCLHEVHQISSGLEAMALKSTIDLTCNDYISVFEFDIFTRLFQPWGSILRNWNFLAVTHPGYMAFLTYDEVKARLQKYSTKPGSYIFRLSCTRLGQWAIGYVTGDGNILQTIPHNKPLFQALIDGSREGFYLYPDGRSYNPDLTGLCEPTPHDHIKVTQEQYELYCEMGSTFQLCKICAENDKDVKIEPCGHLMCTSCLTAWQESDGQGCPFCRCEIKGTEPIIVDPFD

IC50 (Cbl-b; [3]) [nM]	IC50 (Cbl-b; [9]) [nM]	IC50 (Cbl-b; [10]) [nM]	SMILES	fold induction at 0.3 µM [1, 4]	fold induction at 1 µM [1, 5]	fold induction at 1 µM [1, 6]	fold induction at 3 µM ([1]; anti-CD3 alone)	fold induction at 0.3 µM [2, 4]	fold induction at 1 µM [2, 7]	fold induction at 1 µM [2, 8]	fold induction at 3 µM ([2]; anti-CD3 alone)
1 to 5			CCNc1cc(C2(Cc3nncn3C)COC2)cc(N2Cc3c(cc(CN4CCC(F)(F)[C@H](C)C4)nc3C3CC3)C2=O)n1 [Compound 42, (R)-4-cyclopropyl-6-((4,4-difluoro-3-methylpiperidin-1-yl)methyl)-2-(6-(ethylamino)-4-(3-((4-methyl-4H-1,2,4-triazol-3-yl)methyl)oxetan-3-yl)pyridin-2-yl)-2,3-dihydro-1H-pyrrolo[3,4-c]pyridin-1-one]	> 1.39	> 1.39	> 1.14	> 1.14	> 15	> 15	> 0.66	> 0.66
5.1 to 100			Cn1cnnc1CC1(c2cccc(N3Cc4c(cc(CN5CCCC(C)(F)C5)cc4C(F)(F)F)C3=O)c2)COC1 (stereo in doubt) [Compound 6, (S)-6-((3-fluoro-3-methylpiperidin-1-yl)methyl)-2-(3-(3-((4-methyl-4H-1,2,4-triazol-3-yl)methyl)oxetan-3-yl)phenyl)-4-(trifluoromethyl)isoindolin-1-one]	> 1.39	> 1.39	> 1.14	> 1.14	< 10	> 15	< 0.33	0.34 to 0.66
1 to 5	1 to 5		C[C@H]1CCCN(Cc2cc3c(c(C(F)(F)F)c2)CN(c2cc(C4(Cc5nncn5C)COC4)ccn2)C3=O)C1 [Compound 48, (S)-2-(4-(3-((4-methyl-4H-1,2,4-triazol-3-yl)methyl)oxetan-3-yl)pyridin-2-yl)-6-((3-methylpiperidin-1-yl)methyl)-4-(trifluoromethyl)isoindolin-1-one]	> 1.39	> 1.39	> 1.14	> 1.14	> 15	> 15	> 0.66	> 0.66
1 to 5			Cn1cnnc1CC1(c2cccc(N3Cc4c(cc(CN5CCC[C@H](C#N)C5)cc4C(F)(F)F)C3=O)c2)COC1 [Compound 18, (S)-1-((2-(3-(3-((4-methyl-4H-1,2,4-triazol-3-yl)methyl)oxetan-3-yl)phenyl)-3-oxo-7-(trifluoromethyl)isoindolin-5-yl)methyl)piperidine-3-carbonitrile]	1.25 to 1.39	1.25 to 1.39	> 1.14	> 1.14	< 10	11 to 15	< 0.33	0.34 to 0.66
		1 to 5	C[C@H]1CN(Cc2cc(C(=O)Nc3cccc(C4(Cc5nncn5C)COC4)c3)nc(C3CC3)c2)CCC1(F)F [Compound 33, 6-cyclopropyl-4-{[(3S)-4,4-difluoro-3-methylpiperidin-1-yl]methyl}-N-(3-{3-[(4-methyl-1,2,4-triazol-3-yl)methyl]oxetan-3-yl}phenyl)pyridine-2-carboxamide]	< 1.24	< 1.24	1.05 to 1.14	1.05 to 1.14	11 to 15	11 to 15	< 0.33	0.34 to 0.66
5.1 to 100			Cn1cnnc1CC1(c2cccc(N3Cc4c(cc(CN5CCCC(C)(F)C5)cc4C(F)(F)F)C3=O)c2)COC1 (stereo in doubt) [Compound 5, (R)-6-((3-fluoro-3-methylpiperidin-1-yl)methyl)-2-(3-(3-((4-methyl-4H-1,2,4-triazol-3-yl)methyl)oxetan-3-yl)phenyl)-4-(trifluoromethyl) isoindolin-1-one]	> 1.39	> 1.39	> 1.14	> 1.14	11 to 15	> 15	< 0.33	0.34 to 0.66
1 to 5	1 to 5		Cn1cnnc1CC1(c2cccc(N3Cc4c(cc(CN5CCCC(CC#N)C5)cc4C(F)(F)F)C3=O)c2)COC1 (centres unmarked) [Compound 4, 2-(1-((2-(3-(3-((4-methyl-4H-1,2,4-triazol-3-yl)methyl)oxetan-3-yl)phenyl)-3-oxo-7-(trifluoromethyl)isoindolin-5-yl)methyl)piperidin-3-yl)acetonitrile]	> 1.39	> 1.39	> 1.14	> 1.14	> 15	> 15	0.34 to 0.66	0.34 to 0.66
		1 to 5	Cn1cnnc1CC1(c2cccc(N3Cc4c(cc(CN5CCC(F)(F)[C@@]6(CCOC6)C5)cc4C(F)(F)F)C3=O)c2)COC1 [Compound 14, (S)-6-((10,10-difluoro-2-oxa-7-azaspiro[4.5]decan-7-yl)methyl)-2-(3-(3-((4-methyl-4H-1,2,4-triazol-3-yl)methyl)oxetan-3-yl)phenyl)-4-(trifluoromethyl)isoindolin-1-one]	< 1.24	< 1.24	1.05 to 1.14	< 1.04	< 10	11 to 15	0.34 to 0.66	0.34 to 0.66
	1 to 5	1 to 5	C[C@@H]1C[C@H](C)CN(Cc2cc3c(c(C(F)(F)F)c2)CN(c2cccc(-c4c(-c5nncn5C)cnn4C)c2)C3=O)C1 [Compound 45, 6-((cis-3,5-dimethylpiperidin-1-yl)methyl)-2-(3-(1-methyl-4-(4-methyl-4H-1,2,4-triazol-3-yl)-1H-pyrazol-5-yl)phenyl)-4-(trifluoromethyl)isoindolin-1-one]	1.25 to 1.39	< 1.24	< 1.04	< 1.04	11 to 15	11 to 15	0.34 to 0.66	0.34 to 0.66
< 1	< 1		C[C@H]1CCCN(Cc2cc3c(c(C(F)(F)F)c2)CN(c2cccc(C4(Cc5nncn5C(F)F)COC4)c2)C3=O)C1 [Compound 36, 2-[3-(3-{[4-(difluoromethyl)-1,2,4-triazol-3-yl]methyl}oxetan-3-yl)phenyl]-6-{[(3S)-3-methylpiperidin-1-yl]methyl}-4-(trifluoromethyl)-3H-isoindol-1-one]	> 1.39	> 1.39	> 1.14	> 1.14	> 15	> 15	> 0.66	> 0.66
< 1	< 1		C[C@H]1C[C@H](CO)CN(Cc2cc3c(c(C(F)(F)F)c2)CN(c2cccc(C4(Cc5nncn5C)COC4)c2)C3=O)C1 (relative stereo) [Compound 22, trans-6-{[3-(hydroxymethyl)-5-methylpiperidin-1-yl]methyl}-2-(3-{3-[(4-methyl-1,2,4-triazol-3-yl)methyl]oxetan-3-yl}phenyl)-4-(trifluoromethyl)-3H-isoindol-1-one]	> 1.39	> 1.39	< 1.04	< 1.04	> 15	> 15	> 0.66	> 0.66
		5.1 to 100	Cn1cnnc1CC1(c2cccc(N3Cc4c(cc(CN5CCCC6(CC6)C5)cc4C(F)(F)F)C3=O)c2)COC1 [Compound 7, 6-((5-azaspiro[2.5]octan-5-yl)methyl)-2-(3-(3-((4-methyl-4H-1,2,4-triazol-3-yl)methyl)oxetan-3-yl)phenyl)-4-(trifluoromethyl)isoindolin-1-one]	> 1.39	> 1.39	> 1.14	> 1.14	11 to 15	11 to 15	< 0.33	0.34 to 0.66
